How the values were obtained:
[1] = Pharmacokinetics of TH2870 in CD-1 mice, single IV bolus and single IP dose; conditions: mouse, in vivo
Description: The pharmacokinetics of TH2870 in CD-1 mice following a single intravenous bolus dose (5 mg/kg) and a single intraperitoneal dose (10 mg/kg) were determined.

LIXC-086 = assay: TH2870 sensitivity in liver cancer cells; type: cell-based, human; conditions: AKR1C3 expression ++++
HCCC-9810 = assay: TH2870 sensitivity in liver cancer cells; type: cell-based, human; conditions: AKR1C3 expression ++++
A549 NSCLC xenograft = assay: Example 4-D antitumor efficacy, ectopic A549 NSCLC xenograft model; type: in vivo, female nude mice (nu/nu)
Description: (§1) Specific pathogen-free homozygous female nude mice (nu/nu, Charles River Laboratories) were used. Mice were given food and water ad libitum and housed in microisolator cages. Four to six week old animals were identified by microchips (Locus Technology, Manchester, Md., USA) at the time of the experiments. All animal studies were approved by the Institutional Animal Care and Use Committee at Threshold Pharmaceuticals, Inc.
(§2) All cell lines were from the American Type Culture Collection (ATCC, Rockville, Md., USA).
(§3) Cells were mixed with Matrigel (50% with exception for 30% in the H460) and 0.2 ml per mouse were subcutaneously implanted to the flank area of the animals. When tumor size reached 100-150 250 mm3, mice were randomized into experimental or vehicle groups with 10 mice/group and treatment was started (Day 1). The tested compounds were formulated in 5% DMSO in D5W. The regimens employed in the examples include IP, QD×5/wk (5 days on, 2 days off) as one cycle, for a total of 2 cycles; IP, once; IP, weekly for total 3 weeks; and IV, weekly for 3 weeks. Tumor growth and body weight were measured twice a week. Tumor volume was calculated as (length×width2)/2. Drug efficacy was assessed as Tumor Growth Inhibition (TGI) and Tumor Growth Delay (TGD). TGI was defined as (1−ΔT/ΔC)×100, where ΔT/ΔC presented the ratio of the change in mean (or median, if variation within the group was relatively large) tumor volume of the treated group and of the control group. TGD was calculated as the extra days for the treated tumor to reach 500 mm3 or 1000 mm3 as compared to the control group. Animals were culled when individual tumor size reached over 2000 mm3 or mean tumor volume exceeded 1000 mm3 in the group. Data are expressed as the mean±SEM. One-way analysis of variance with Dunnett post comparison test (GraphPad Prism 4) or two-tailed student's t-test were used for analysis. A P level <0.05 was considered statistically significant.
The compounds were tested in another A549 model. The compounds were dosed as follows. Daily IP dosing: 5 doses then 2 days off then 5 more doses starting at 100 mm^3 tumors on day 1 (10 animals per group average tumor volume). The antitumor effects and the safety of administration are graphically illustrated below.

22RV1 = assay: TH2870 sensitivity in prostate cancer cell lines; type: cell-based; conditions: Homo sapiens
HLE = assay: TH2870 sensitivity in liver cancer cells; type: cell-based, human; conditions: AKR1C3 expression ++
HLF = assay: TH2870 sensitivity in liver cancer cells; type: cell-based, human; conditions: AKR1C3 expression /
NCI-H660 = assay: TH2870 sensitivity in prostate cancer cell lines; type: cell-based; conditions: Homo sapiens
H460 cells = assay: Proliferation assay in H460 cells (2 hr exposure, AlamarBlue); type: cell-based, human; conditions: Homo sapiens, NCI-H460, 2 hrs exposure, wash, 70 hrs growth, read-out: IC 50 in proliferation assay in H460 cells
Procedure, shortened: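 H460 cells seeded at 4×10^3/well, grown 24 h, then exposed to compound for 2 h at 37 °C. Drug was washed off and cells were regrown 70 h in fresh medium. Viable cells were read by AlamarBlue, and IC50 was taken as the concentration giving 50% growth inhibition.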

[2] = Example 4-I body weight change, H460 xenograft study; type: in vivo, female nude mice (nu/nu); conditions: iv, Q7D × 3
Description: as §3
(§4) The compound TH-2870 was tested in a H460 model. The compound was dosed follows. 1.5, 5 or 15 mg/kg, IV, weekly for 3 weeks at 250 mm^3 tumors on day 1 (10 animals per group average tumor volume), comparing with docetaxel. The antitumor effects and the safety of administration are graphically illustrated below.

LIXC-006 = assay: TH2870 sensitivity in liver cancer cells; type: cell-based, human; conditions: AKR1C3 expression +++
H460 NSCLC xenograft = assay: Example 4-I antitumor efficacy, ectopic H460 NSCLC xenograft model; type: in vivo, female nude mice (nu/nu); conditions: iv, Q7D × 3; for TGD500, Days (vs. vehicle) / TGD1000, Days (vs. vehicle): H460; for TGI: H460, 250 mm3 tumors on day 1
Description: as §1, §2, §3, §4

SNU-449 = assay: TH2870 sensitivity in liver cancer cells; type: cell-based, human; conditions: AKR1C3 expression ++++
JHH-7 = assay: TH2870 sensitivity in liver cancer cells; type: cell-based, human
SK-HEP-1 = assay: TH2870 sensitivity in liver cancer cells; type: cell-based, human
[3] = Homo sapiens, read-out: RelIC50

In the case of `CC(OP(=O)(N1CC1)N1CC1)c1ccc([N+](=O)[O-])c(Oc2cccc(C(=O)N(C)C)c2)c1` (centres unmarked) [Compound 2870], the AUC ([1]; IP 10 mg/kg) is reported as 725 ng·h/mL, the Cmax ([1]; IP 10 mg/kg) is reported as 4020 ng/mL and the Tmax ([1]; IP 10 mg/kg) is reported as 5 min. The half-life ([1]; IP 10 mg/kg) was 9 min, the AUC ([1]; IV bolus 5 mg/kg) was 963 ng·h/mL and the Cmax ([1]; IV bolus 5 mg/kg) was 6790 ng/mL. For the same compound, the Tmax ([1]; IV bolus 5 mg/kg) was 2 min, the clearance ([1]; IV bolus 5 mg/kg) was 86.5 mL/min/kg and the half-life ([1]; IV bolus 5 mg/kg) was 6.56 min. For the same compound, the Vd ([1]; IV bolus 5 mg/kg, read-out: Vss) was 0.668 L/kg, the “Max Inhibition %” value (LIXC-086) was 92.8% and the IC50 (LIXC-086; [3]) was 41 nM. For the same compound, the “Max Inhibition %” value (HCCC-9810) was 95.4%, the “TGD 500” value (A549 NSCLC xenograft; 20 mg/kg IP QD × 5/wk × 2 wks) was over 85 days and the TGI (A549 NSCLC xenograft; 20 mg/kg IP QD × 5/wk × 2 wks) was 95.0%. For the same compound, the “TGD 500” value (A549 NSCLC xenograft; 40 mg/kg IV 2/wk × 2 wks) was over 85 days, the TGI (A549 NSCLC xenograft; 40 mg/kg IV 2/wk × 2 wks) was 98.6% and the IC50 (22RV1) was 1.9 nM. For the same compound, the “Max Inhibition %” value (HLE) was 80.5%, the IC50 (HLE; [3]) was 84.2 nM and the “Max Inhibition %” value (HLF) was 22.5%. The IC50 (HLF; [3]) was over 1000 nM, the IC50 (NCI-H660) was over 300 nM and the IC50 (H460 cells) was 0.4 nM. For the same compound, the “Max. BW loss %” value ([2]; 1.5 mg/kg) was 7.6%, the “Max. BW loss %” value ([2]; 5 mg/kg) was 7.6% and the “Max. BW loss %” value ([2]; 15 mg/kg) was 5.8%. The “Max Inhibition %” value (LIXC-006) was 71.7%, the IC50 (LIXC-006; [3]) was 116 nM and the “TGD500, Days (vs. vehicle)” value (H460 NSCLC xenograft; 1.5 mg/kg) was 18 days. The “TGD1000, Days (vs. vehicle)” value (H460 NSCLC xenograft; 1.5 mg/kg) was 18 days, the TGI (H460 NSCLC xenograft; 1.5 mg/kg) was 100.0% and the “TGD500, Days (vs. vehicle)” value (H460 NSCLC xenograft; 5 mg/kg) was 36 days. For the same compound, the “TGD1000, Days (vs. vehicle)” value (H460 NSCLC xenograft; 5 mg/kg) was 38 days, the TGI (H460 NSCLC xenograft; 5 mg/kg) was 121.3% and the “TGD500, Days (vs. vehicle)” value (H460 NSCLC xenograft; 15 mg/kg) was 49 days. The “TGD1000, Days (vs. vehicle)” value (H460 NSCLC xenograft; 15 mg/kg) was 50 days, the TGI (H460 NSCLC xenograft; 15 mg/kg) was 121.6% and the “Max Inhibition %” value (SNU-449) was 99.6%. The IC50 (SNU-449; [3]) was 40 nM, the “Max Inhibition %” value (JHH-7; AKR1C3 expression +++) was 69.8% and the IC50 (JHH-7; Homo sapiens, JHH7, AKR1C3 expression +++, read-out: RelIC50) was 107 nM. For the same compound, the “Max Inhibition %” value (SK-HEP-1; AKR1C3 expression /) was 44.3% and the IC50 (SK-HEP-1; Homo sapiens, SK-HEP1, AKR1C3 expression /, read-out: RelIC50) was over 1000 nM.
